In patent US7893088B2, “6-substituted isoquinoline derivatives” (N.V. Organon, priority 2006, dated 2011):

Target: recombinant human ROCK-I (Homo sapiens, UniProt Q13464)
Experiment: biochemical
Settings: IMAP fluorescence polarisation, dose response curve, read-out: plC50 (the source's name)
Procedure: Following a one hour incubation at room temperature in the dark, enzyme activity is detected by adding 60 μl of IMAP binding reagent (Molecular Devices) to each well.

Chain of recombinant human ROCK-I (Q13464 whole entry): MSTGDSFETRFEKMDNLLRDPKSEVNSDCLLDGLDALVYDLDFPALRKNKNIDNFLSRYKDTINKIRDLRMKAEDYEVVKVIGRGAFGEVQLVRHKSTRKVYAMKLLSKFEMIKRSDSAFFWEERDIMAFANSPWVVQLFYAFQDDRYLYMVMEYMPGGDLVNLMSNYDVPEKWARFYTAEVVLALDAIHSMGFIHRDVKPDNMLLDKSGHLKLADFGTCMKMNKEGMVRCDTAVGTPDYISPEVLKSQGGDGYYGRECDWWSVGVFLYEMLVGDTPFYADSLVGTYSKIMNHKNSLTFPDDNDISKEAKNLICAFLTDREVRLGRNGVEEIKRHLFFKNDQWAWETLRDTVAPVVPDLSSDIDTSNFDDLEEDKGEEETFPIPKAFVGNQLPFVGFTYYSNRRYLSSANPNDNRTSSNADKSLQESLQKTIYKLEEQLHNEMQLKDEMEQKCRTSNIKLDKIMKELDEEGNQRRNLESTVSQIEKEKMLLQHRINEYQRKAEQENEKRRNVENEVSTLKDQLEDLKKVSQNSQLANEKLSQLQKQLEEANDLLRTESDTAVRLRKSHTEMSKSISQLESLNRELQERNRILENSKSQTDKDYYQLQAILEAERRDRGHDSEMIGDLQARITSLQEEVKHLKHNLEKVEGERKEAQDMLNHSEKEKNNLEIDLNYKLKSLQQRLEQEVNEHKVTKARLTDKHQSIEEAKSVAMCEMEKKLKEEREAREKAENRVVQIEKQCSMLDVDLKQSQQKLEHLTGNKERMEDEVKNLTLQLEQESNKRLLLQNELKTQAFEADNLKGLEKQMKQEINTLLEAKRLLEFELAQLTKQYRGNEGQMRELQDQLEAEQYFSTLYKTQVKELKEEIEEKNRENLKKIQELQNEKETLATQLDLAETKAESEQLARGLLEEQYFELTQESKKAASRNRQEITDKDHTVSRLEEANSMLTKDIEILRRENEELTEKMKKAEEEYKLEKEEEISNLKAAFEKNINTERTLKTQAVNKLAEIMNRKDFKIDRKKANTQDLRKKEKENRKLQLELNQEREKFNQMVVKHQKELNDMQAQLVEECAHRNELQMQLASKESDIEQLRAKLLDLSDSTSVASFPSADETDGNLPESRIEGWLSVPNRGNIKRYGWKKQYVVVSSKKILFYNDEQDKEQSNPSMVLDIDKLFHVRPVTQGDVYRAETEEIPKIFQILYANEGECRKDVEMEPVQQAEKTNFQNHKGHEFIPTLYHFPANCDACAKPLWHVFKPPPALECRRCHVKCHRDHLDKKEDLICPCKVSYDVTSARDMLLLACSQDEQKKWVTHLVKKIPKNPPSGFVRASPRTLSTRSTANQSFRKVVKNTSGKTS

**Q.** With `Nc1nccc2cc(S[C@H]3CC[C@@H](N)CC3)ccc12` [Example 4, Cis-6-(4-aminocyclohexylsulfanyl)isoquinolin-1-ylamine] as the molecule, how does the IC50 read?
**A.** The IC50 was less than 0.316 µM.
